Test results published in the METLIN SMRT retention time set (Domingo-Almenara et al. 2019).

Assay: gradient 5% acetonitrile 3 min, to 50% in 2 min, to 85% in 15 min, held 3 min, 100 µL/min
Conditions: column: Zorbax Extend-C18 2.1 x 50 mm; eluents: water / acetonitrile, 0.1% formic acid
How it was run: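 A Zorbax Extend-C18 column (2.1 × 50 mm, 1.8 μm) run at 100 μL/min with water and acetonitrile, both containing 0.1% formic acid, separated mixtures of ~100 pure standards. The HPLC was coupled to a quadrupole time-of-flight mass spectrometer operated in positive and negative ionization mode, with dead and dwell volumes of 40 μL and 900 μL. Each retention time was taken from a computationally picked adduct peak that was then manually inspected.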

SMILES	RP-LC retention time [s]
Cc1[nH]c(C(=O)N2CCCC(C(=O)NCc3ccc(N(C)C)cc3)C2)c(C)c1C(=O)OC(C)C (configuration not stated)	681
O=C(Cn1nc2c3cc(F)ccc3ncn2c1=O)Nc1ccc(Br)cc1	745
Cc1ccc(Cl)cc1NC(=O)C1CCN(S(=O)(=O)c2cc(C(=O)N(C)C)cs2)CC1	846
O=C(Cn1ccc2cc(S(=O)(=O)N3CCCCCC3)ccc21)N1CCN(c2ccccn2)CC1	707
CC1CN2C=NC(N3CCN(S(=O)(=O)Cc4cccc(Cl)c4)CC3)=CC2=N1 (configuration not stated)	627
CN(C)c1ccc(C(=O)N2CCc3cn(C)c4cccc(c34)C2)cc1	671
COCc1noc(C2CCCCCN2C(=O)NC(C)C)n1 (configuration not stated)	730
Cc1cc(-c2cc(S(=O)(=O)N3CCC(Cc4ccccc4)CC3)c(C)s2)n[nH]1	1090
CC1(C)CC(=O)c2cn(-c3ccccc3)c(=O)c(C(=O)N3CCCC3)c2C1	699
CC(C)c1nc(-c2ccc(OC3CCN(C(=O)C4(c5ccccc5)CC4)C3)cc2)no1 (configuration not stated)	1120
Cc1ccn2c(NC(=O)c3ccc(Cl)c([N+](=O)[O-])c3)c(-c3ccc(F)cc3)nc2c1	757
O=C(CN1CCC2(CC1)N=C(c1ccc(Br)cc1)C(=O)N2)Nc1ccccc1	825
Cc1cccc(C2CCCN2C(=O)c2cnn3cc(Br)cnc23)c1 (configuration not stated)	869
COc1ccc(S(=O)(=O)NCc2ccc3c(c2)CCN3C(=O)C(C)C)cc1OC	803
COc1cc([C@@H]2c3cc4c(c(O)c3C[C@H]3COC(=O)[C@@H]32)OCO4)cc(OC)c1OC	620
COc1ccc(NC2=C(c3ccccc3)C(=O)N(Cc3ccccc3)C2=O)cc1	1140
CCN1C(=O)C2(CCN(S(=O)(=O)c3ccc(C)c(C)c3)CC2)c2ccccc21	1130
O=C(c1cccc(Cl)c1)N1CCC(n2c(-c3ccoc3)nc3cccnc32)C1 (configuration not stated)	776
COc1ccccc1CNC(=O)c1nc(N2CCOCC2)c2c(C)cc(C)nc2n1	643
CC1=NS(=O)(=O)N(Cc2ccccc2)C=C1C(=O)OCc1noc(-c2ccc(C)c(C)c2)n1	1220
Cn1ccc2c(cc(C(=O)NCc3cc(F)cc(F)c3)n2C)c1=O	701
COc1ccc(C2CC(=O)N(c3ccc(C)c(C)c3)C(=O)C2)cc1OC	893
COc1cccc(N2CC(C)Cn3c2nc2c3c(=O)n(Cc3c(F)cccc3Cl)c(=O)n2C)c1 (configuration not stated)	1080
CC(C)Oc1ccc(-c2noc(CCn3nc(-c4ccc5c(c4)OCO5)ccc3=O)n2)cc1	1020
COc1cccc2cc(C(=O)N3CCN(c4ccccn4)CC3)oc12	576
CCNC(=O)C1CCN(C(=O)Nc2ccc(NC(=O)Nc3ccccc3F)cc2)CC1	686
COc1ccc(-c2nc3cc(C)ccn3c2NC(=O)CC(C)(C)C)cc1	681
O=C1CCCN1CN(C(=O)c1ccccc1F)c1nc2ccccc2s1	866

SMILES	RP-LC retention time [s]
CCOc1ccc(-n2nc(CO)c(C(=O)NC)n2)cc1	763
Cc1nn(-c2ccccc2)c(C)c1S(=O)(=O)N1CCC(C(=O)Nc2ccccc2F)CC1	950
COc1ccc(C(=O)N2CCCn3nc(-c4ccc(Cl)cc4)cc3C2)cn1	881
COc1ccc(CCN2C(=O)C(NC(C)=O)(C(F)(F)F)C3=C2CC(C)(C)CC3=O)cc1OC (configuration not stated)	760
O=C(CSc1ncnc2ccccc12)NCCc1ccccc1	706
N#Cc1cccc(NC(=O)Cn2c(=O)cc(C(=O)N3CCCC3)c3ccccc32)c1	690
COc1cccc(Cn2c(=O)c3cnc(-c4ccncc4)nc3n(C)c2=O)c1	805
O=C(Nc1nc(-c2ccccc2)cs1)c1c(-c2ccc(F)cc2)nc2n1CCS2(=O)=O	1020
COc1cc(-c2nc3ncccn3c2NCc2ccc(C)cc2)ccc1OC(C)C	811
Cc1nc(-c2cnccn2)n(CC(=O)Nc2ccc(F)c(Cl)c2)c(=O)c1C	789
O=C(c1ccccc1)N1CCc2cc(-c3ccno3)ccc21	886
CCOc1cccc(-c2noc(Cn3c(=O)n(Cc4ccccc4)c(=O)c4sccc43)n2)c1	1160
CN(C)[C@@H]1CN(Cc2ccc(F)c(F)c2)CC[C@@H]1CO	434
CCN1CCN(CCCNC(=O)C(C)n2c(=O)c(C(F)(F)F)nc3cc(C)c(C)cc32)CC1 (configuration not stated)	649
Cc1cc(C)n(CC(=O)NC(C)c2ccccc2)c1-c1nc(C2CC2)no1 (configuration not stated)	914
CC(C)c1ccc(CN2C[C@@H]3C(=O)N(CCc4ccccc4)C(=O)[C@@H]3C2)cc1	772
CCc1nc(OCC(=O)NCc2ccc(N(C)C)cc2)c2c(C)c(C)oc2n1	689
CCc1nn2c(CNS(=O)(=O)Cc3ccccc3Cl)c(-c3ccccc3)nc2s1	1010
O=C(c1ccsc1)N1CCc2cc(-c3csc(C4CC4)n3)ccc21	1120
COc1ccc(NC(=O)N2c3ccccc3NC3=C(C(=O)CCC3)C2c2ccco2)c(OC)c1 (configuration not stated)	816
Cc1ccccc1-c1nc(C2CCN(S(=O)(=O)c3ccc(C(C)C)cc3)CC2)no1	1340
O=C(Cc1ccsc1)N1CCC2(CC1)CC(N1CCCCC1)CCO2 (configuration not stated)	590
O=C(CCNc1c(-c2ccccc2)nc2cnccn12)NCc1cccs1	662
COc1cccc2cc(C(=O)N3CC(c4nc(-c5cccs5)no4)C3)oc12	856
CCOC(=O)C1CCCN(S(=O)(=O)c2cc(-c3nnc(-c4ccccc4)o3)ccc2OC)C1 (configuration not stated)	1020
Cn1c(=O)c2cc(C(=O)N3CCN(c4ccc(Cl)cc4)CC3)sc2n(C)c1=O	862
COCCNC(=O)c1cc2c(n(-c3ccc(C(C)C)cc3)c1=O)CCCC2=O	872

Second part, the molecule after the results:

RP-LC retention time [s]	SMILES
734	CCCn1cc(C(=O)NCc2ccc(N3CCOCC3)cc2)c2cccnc21
1080	CCOc1ccc(NC(=O)C2CCN(c3cc(Oc4ccc(CC)cc4)ncn3)CC2)cc1
577	CCCCN(C)C(=O)CC1CCN(c2ccnc(NC)n2)CC1
729	CCCCOc1ccc(-c2cc3c4nnc(CCC(=O)N5CCC(C(N)=O)CC5)n4ccn3n2)cc1
966	COc1ccc(-c2nnc(-c3ccccc3)o2)cc1S(=O)(=O)NC1CCCC1
991	CS(=O)(=O)N1CCC(C(=O)NC2CCCCCC2)Oc2ccc(Cl)cc21 (configuration not stated)
844	CC(C)NC(=O)c1ccc(OCC2CCCN(C(=O)c3ccc(F)cc3)C2)cc1 (configuration not stated)
709	COCCOCC1CCN(C(=O)COc2cccc(OC)c2)CC1
1200	CCc1ccccc1NC(=O)C1CCCN(c2nc3ccccc3nc2C(F)(F)F)C1 (configuration not stated)
1030	COC(=O)c1cc(C)sc1NC(=O)CC1Sc2ccc(C(F)(F)F)cc2NC1=O (configuration not stated)
864	CCn1nccc1-c1csc(S(=O)(=O)N2CCCC2)c1
899	Cc1cc(-c2nnc(C3CCC3)o2)c(C)n1CC(=O)NCc1ccc(F)cc1Cl
606	CC(C)CN1CCCC(COc2ccccc2C(=O)NC2CC2)C1 (configuration not stated)
873	CCCc1noc(-c2ccnc(-n3cnc(C(=O)N4CCSCC4)c3)c2)n1
784	CN(C)C(=O)c1ccc2c(c1)N(CC(=O)N1CCN(c3ccccn3)CC1)C(=O)CO2
596	CCOC(=O)C1=C(CN2CCN(c3ccccn3)CC2)NC(=O)NC1c1ccccc1 (configuration not stated)

RP-LC retention time [s]	SMILES
846	CC(C)NC(=O)c1ccc(OCC2CCCN(C(=O)c3cccc(F)c3)C2)cc1 (configuration not stated)
579	CCN(CC)CCNC(=O)C1CCN(c2nc3ccccc3n3cccc23)CC1
741	CCCN1C(=O)C(CC(=O)NC2CCCC2)Sc2ncccc21 (configuration not stated)
945	COc1cc(OC)c(NC(=O)NC2CCN(c3nc4ccccc4n(C)c3=O)CC2)cc1Cl
1260	CCCN1C(=O)COc2ccc(-c3noc(COc4ccc(Cl)cc4C)n3)cc21
986	CCCCCNC(=O)CN1c2ccc(F)cc2-c2ccccc2S1(=O)=O
579	Cc1cnc(C2CC2)n1CCNC(=O)c1cccn1C
661	COc1ccccc1N1CCN(C(=O)Cn2ncc3c(c2=O)N(C)C(=O)CS3)CC1
722	CSc1ccccc1CN1CCC(CNC(=O)c2ccccc2Cl)CC1
845	Cn1cc(C(=O)NCc2ccc(F)cc2)c(S(=O)(=O)N2CCSCC2)n1
743	CCCCN1CCN(c2ncccc2-c2nnc(-c3ccc(Cl)cc3)o2)CC1
765	CC1(C(=O)NCc2ccc(F)cc2)Cn2cnc(C(=O)NC3CCCCC3)c2C(=O)N1C1CC1 (configuration not stated)
641	CCCCNC(=O)CCC1CCCN(c2cc(NCC)ncn2)C1 (configuration not stated)
1040	CCCC(NC(=O)C1CCCN(c2ccc(=O)n(-c3ccc(C)c(Cl)c3)n2)C1)c1cccs1 (configuration not stated)
895	Cc1nc(-c2csc(S(=O)(=O)N3CCC(C(=O)NCc4ccccc4Cl)CC3)c2)no1
707	O=C(NCc1cc(F)cc(F)c1)C1CCCN(c2cnc3nccnc3c2)C1 (configuration not stated)
